Where only a bound is given, the exact number is not on record here.

Holding throughout (type): biochemical
The target in test [1] is KRAS G12C (Homo sapiens (Human), UniProt P01116+P62937, G12C). Kind of test: Ras-Raf disruption/FRET/MOA assay, KRAS G12C. Conditions: read-out: KRAS G12C FRET data IC50. The source says: (§1) Disruption of B-Raf Ras-Binding Domain (BRAF^RBD) Interaction with K-Ras by Compounds of the Invention (Also Called a FRET Assay or an MOA Assay)
(§2) Note—The following protocol describes a procedure for monitoring disruption of K-Ras G12C (GMP-PNP) binding to BRAF^RBD by a compound of the invention. This protocol may also be executed substituting other Ras proteins or nucleotides, such as K-Ras G12D and K-Ras G13D.
(§3) The purpose of this biochemical assay was to measure the ability of test compounds to facilitate ternary complex formation between a nucleotide-loaded K-Ras isoform and Cyclophilin A; the resulting ternary complex disrupts binding to a BRAF^RBD construct, inhibiting K-Ras signaling through a RAF effector. Data is reported as IC50 values.
(§4) In assay buffer containing 25 mM HEPES pH 7.3, 0.002% Tween20, 0.1% BSA, 100 mM NaCl and 5 mM MgCl2, tagless Cyclophilin A, His6-K-Ras-GMPPNP, and GST-BRAF^RBD were combined in a 384-well assay plate at final concentrations of 25 μM, 12.5 nM, and 50 nM, respectively. Compound was present in plate wells as a 10-point 3-fold dilution series starting at a final concentration of 30 μM. After incubation at 25° C. for 3 hours, a mixture of anti-His Eu—W1024 and anti-GST allophycocyanin was then added to assay sample wells at final concentrations of 10 nM and 50 nM, respectively, and the reaction incubated for an additional 1.5 hours. […] Compounds that facilitate disruption of a K-Ras: RAF complex were identified as those eliciting a decrease in the TR-FRET ratio relative to DMSO control wells.

Test [2] deals with KRAS G13C (Homo sapiens (Human), UniProt P01116+P62937, G13C). Kind of test: Ras-Raf disruption/FRET/MOA assay, KRAS G13C. The following applies: read-out: KRAS G13C FRET IC50.
Sequence of KRAS G13C (P01116 other isoform, or with tags, fused parts or gaps G13C): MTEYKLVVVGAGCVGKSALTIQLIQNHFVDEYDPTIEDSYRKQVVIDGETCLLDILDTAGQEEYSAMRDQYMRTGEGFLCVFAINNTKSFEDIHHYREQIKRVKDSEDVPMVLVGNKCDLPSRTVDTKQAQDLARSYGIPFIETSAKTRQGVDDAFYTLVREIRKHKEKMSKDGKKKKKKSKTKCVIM
Sequence of KRAS G13C (P62937 whole entry): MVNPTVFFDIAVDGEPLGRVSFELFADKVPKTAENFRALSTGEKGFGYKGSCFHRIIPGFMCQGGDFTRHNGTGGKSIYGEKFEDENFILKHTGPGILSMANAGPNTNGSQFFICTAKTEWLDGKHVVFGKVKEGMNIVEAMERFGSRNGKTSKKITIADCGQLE
Source text: as §1, §2, §3, §4

Test [3] addresses NRAS G12C (Homo sapiens (Human), UniProt P01111+P62937, G12C). Kind of test: Ras-Raf disruption/FRET/MOA assay, NRAS G12C. Conditions: read-out: NRAS G12C FRET data IC50.
Source text: as §1, §2, §3, §4

Test [4] has as its target KRAS G12V (Homo sapiens (Human), UniProt P01116+P62937, G12V). Kind of test: Ras-Raf disruption/FRET/MOA assay, KRAS G12V. Conditions: read-out: KRAS G12V FRET IC50.
Source text: as §1, §2, §3, §4

Test [5] deals with KRAS G12S (Homo sapiens (Human), UniProt P01116+P62937, G12S). Kind of test: Ras-Raf disruption/FRET/MOA assay, KRAS G12S. Conditions: read-out: KRAS G12S FRET IC50.
Sequence of KRAS G12S (P01116 other isoform, or with tags, fused parts or gaps G12S): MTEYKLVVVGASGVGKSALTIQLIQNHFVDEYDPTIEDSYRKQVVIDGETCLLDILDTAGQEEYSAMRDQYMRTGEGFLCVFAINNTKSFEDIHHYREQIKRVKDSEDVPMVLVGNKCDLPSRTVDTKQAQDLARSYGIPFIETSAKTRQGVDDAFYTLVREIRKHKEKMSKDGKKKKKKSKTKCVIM
Sequence of KRAS G12S (P62937 whole entry): as the sequence (P62937 whole entry) above
Source text: as §1, §2, §3, §4

Test [6] deals with KRAS G13D (Homo sapiens (Human), UniProt P01116+P62937, G13D). Kind of test: Ras-Raf disruption/FRET/MOA assay, KRAS G13D. The following applies: read-out: KRAS G13D FRET IC50.
Sequence of KRAS G13D (P01116 other isoform, or with tags, fused parts or gaps G13D): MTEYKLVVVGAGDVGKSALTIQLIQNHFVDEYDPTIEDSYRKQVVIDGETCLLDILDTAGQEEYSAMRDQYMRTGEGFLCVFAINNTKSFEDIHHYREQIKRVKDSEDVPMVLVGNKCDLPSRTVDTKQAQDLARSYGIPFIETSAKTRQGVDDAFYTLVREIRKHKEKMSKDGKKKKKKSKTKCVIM
Sequence of KRAS G13D (P62937 whole entry): as the sequence (P62937 whole entry) above
Source text: as §1, §2, §3, §4

Test [7] concerns the target KRAS G12D (Homo sapiens (Human), UniProt P01116+P62937, G12D). Kind of test: Ras-Raf disruption/FRET/MOA assay, KRAS G12D. The following applies: read-out: KRAS G12D FRET IC50.
Source text: as §1, §2, §3, §4

Test [8] deals with KRAS WT (Homo sapiens (Human), UniProt P01116+P62937). Kind of test: Ras-Raf disruption/FRET/MOA assay, KRAS WT. Conditions: read-out: KRAS WT FRET IC50.
Sequence of KRAS WT (P01116 other isoform, or with tags, fused parts or gaps): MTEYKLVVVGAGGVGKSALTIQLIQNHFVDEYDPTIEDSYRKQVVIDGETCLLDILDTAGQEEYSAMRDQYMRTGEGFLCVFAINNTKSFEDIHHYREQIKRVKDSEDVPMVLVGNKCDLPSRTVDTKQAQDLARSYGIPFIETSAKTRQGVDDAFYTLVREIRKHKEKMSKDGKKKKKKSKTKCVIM
Sequence of KRAS WT (P62937 whole entry): as the sequence (P62937 whole entry) above
Source text: as §1, §2, §3, §4

Sequence of KRAS G12C (P01116-2 other isoform, or with tags, fused parts or gaps G12C): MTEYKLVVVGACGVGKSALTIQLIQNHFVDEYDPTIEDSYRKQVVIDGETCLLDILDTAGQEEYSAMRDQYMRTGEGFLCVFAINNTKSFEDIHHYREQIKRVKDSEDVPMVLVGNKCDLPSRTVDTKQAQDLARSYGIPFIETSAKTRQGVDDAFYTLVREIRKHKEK
Sequence of KRAS G12C (P62937 whole entry, the tested form may be a part): as the sequence (P62937 whole entry) above
Sequence of KRAS G12D (P01116 other isoform, or with tags, fused parts or gaps G12D): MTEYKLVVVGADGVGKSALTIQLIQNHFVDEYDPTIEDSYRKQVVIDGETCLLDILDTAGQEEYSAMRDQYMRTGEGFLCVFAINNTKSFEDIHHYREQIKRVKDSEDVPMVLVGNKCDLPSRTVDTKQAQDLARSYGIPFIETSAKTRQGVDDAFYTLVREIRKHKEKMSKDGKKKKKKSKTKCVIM
Sequence of KRAS G12D (P62937 whole entry): as the sequence (P62937 whole entry) above
Sequence of NRAS G12C (P01111 whole entry G12C): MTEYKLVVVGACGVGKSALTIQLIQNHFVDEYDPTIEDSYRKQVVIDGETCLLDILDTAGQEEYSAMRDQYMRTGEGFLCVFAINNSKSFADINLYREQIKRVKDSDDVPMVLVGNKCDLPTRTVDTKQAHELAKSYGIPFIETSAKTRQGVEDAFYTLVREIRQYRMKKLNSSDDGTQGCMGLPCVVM
Sequence of NRAS G12C (P62937 whole entry): as the sequence (P62937 whole entry) above
Sequence of KRAS G12V (P01116 other isoform, or with tags, fused parts or gaps G12V): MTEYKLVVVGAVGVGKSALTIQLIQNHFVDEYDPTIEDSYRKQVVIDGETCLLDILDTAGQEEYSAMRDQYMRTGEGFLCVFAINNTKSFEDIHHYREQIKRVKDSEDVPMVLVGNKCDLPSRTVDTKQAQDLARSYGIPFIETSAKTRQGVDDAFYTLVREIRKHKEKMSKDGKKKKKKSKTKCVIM
Sequence of KRAS G12V (P62937 whole entry): as the sequence (P62937 whole entry) above

`CCn1c(-c2cnccc2COC)c2c3cc(ccc31)-c1cc(O)cc(c1)C[C@H](NC(=O)[C@H](C(C)C)N(C)C(=O)CCN(C)C(=O)[C@H]1CN1)C(=O)N1CCC[C@H](N1)C(=O)OCC(C)(C)C2` (single isomer, unassigned) [Example 41]: the IC50 in test [1] was below 0.01 µM; in test [2], 0.01 to 0.1 µM; in test [3] it was below 0.01 µM; in test [4], 0.1 to 1 µM; in test [5], 0.1 to 1 µM; in test [6], 0.1 to 1 µM. Also, the IC50 in test [7] and in test [8] was 0.1 to 1 µM in each case.
For `CCn1c(-c2cnccc2COC)c2c3cc(ccc31)-c1cc(O)cc(c1)C[C@H](NC(=O)[C@H](C(C)C)N(C)C(=O)[C@H]1CCN(C(=O)[C@H]3CN3)C1)C(=O)N1CCC[C@H](N1)C(=O)OCC(C)(C)C2` [Example 1, (3S)-1-((R)-aziridine-2-carbonyl)-N-((2S)-1-(((6^3S,4S)-1^1-ethyl-25-hydroxy-1^2-(4-(methoxymethyl)pyridin-3-yl)-10,10-dimethyl-5,7-dioxo-6^1,6^2,6^3,6^4,6^5,6^6-hexahydro-1^1H-8-oxa-1 (5,3)-indola-6 (1,3)-pyridazina-2 (1,3)-benzenacycloundecaphane-4-yl)amino)-3-methyl-1-oxobutan-2-yl)-N-methylpyrrolidine-3-carboxamide], the IC50 in test [1] was below 0.01 µM; in test [2], 0.1 to 1 µM; in test [3], below 0.01 µM; in test [4], 0.01 to 0.1 µM; in test [5] it was 0.01 to 0.1 µM; in test [6] it was 0.1 to 1 µM. Further, the IC50 in test [7] and in test [8] was 0.1 to 1 µM each time.
As for `CCn1c(-c2cnccc2COC)c2c3cc(ccc31)-c1cc(O)cc(c1)C[C@H](NC(=O)[C@H](C(C)C)N(C)C(=O)[C@H]1CCN(C(=O)[C@@H]3CN3)C1)C(=O)N1CCC[C@H](N1)C(=O)OCC(C)(C)C2` [Example 2], the IC50 in test [1] is 0.01 to 0.1 µM; in test [2], 0.1 to 1 µM; in test [3] it was 0.01 to 0.1 µM; in test [4], 0.1 to 1 µM; in test [5], 0.1 to 1 µM; in test [6], 0.1 to 1 µM. Further, the IC50 in test [7] and in test [8] was 0.1 to 1 µM each time.
Regarding `CCn1c(-c2cnccc2COC)c2c3cc(ccc31)-c1cc(O)cc(c1)C[C@H](NC(=O)[C@H](C(C)C)N(C)C(=O)C1CCN(C(=O)[C@H]3CN3)CC1)C(=O)N1CCC[C@H](N1)C(=O)OCC(C)(C)C2` [Example 3], the IC50 in test [1] fell in the range of 0.01 to 0.1 µM; in test [2], 0.01 to 0.1 µM; in test [3], 0.01 to 0.1 µM; in test [4], 0.1 to 1 µM; in test [5], 0.1 to 1 µM; in test [6] it was 0.1 to 1 µM. In addition, the half-maximal inhibitory concentration (IC50) in test [7] is 1 to 10 µM; in test [8] it was 0.1 to 1 µM.
`CCn1c(-c2cnccc2COC)c2c3cc(ccc31)-c1cc(O)cc(c1)C[C@H](NC(=O)[C@H](C(C)C)N(C)C(=O)C1CCN(C(=O)[C@@H]3CN3)CC1)C(=O)N1CCC[C@H](N1)C(=O)OCC(C)(C)C2` [Example 4]: the IC50 in test [1] was 0.01 to 0.1 µM; in test [2] it was 0.01 to 0.1 µM; in test [3], 0.1 to 1 µM; in test [4], 0.1 to 1 µM; in test [5], 0.1 to 1 µM; in test [6], 0.1 to 1 µM. Besides, the IC50 in test [7] is 1 to 10 µM; in test [8] it was 0.1 to 1 µM.
For `CCn1c(-c2cnccc2COC)c2c3cc(ccc31)-c1cc(O)cc(c1)C[C@H](NC(=O)[C@H](C(C)C)N(C)C(=O)C1CN(C(=O)[C@H]3CN3)C1)C(=O)N1CCC[C@H](N1)C(=O)OCC(C)(C)C2` [Example 5], the IC50 was 0.01 to 0.1 µM in test [1]; 0.1 to 1 µM in test [2]; below 0.01 µM in test [3]; 0.1 to 1 µM in test [4]; 0.1 to 1 µM in test [5]; 0.1 to 1 µM in test [6]. For the same compound, the IC50 in test [7] was 1 to 10 µM; in test [8] it was 0.1 to 1 µM.
With `CCn1c(-c2cnccc2COC)c2c3cc(ccc31)-c1cc(O)cc(c1)C[C@H](NC(=O)[C@H](C(C)C)N(C)C(=O)C1CN(C(=O)[C@@H]3CN3)C1)C(=O)N1CCC[C@H](N1)C(=O)OCC(C)(C)C2` [Example 6], the IC50 lay in the range of 0.01 to 0.1 µM in test [1]; 0.1 to 1 µM in test [2]; 0.01 to 0.1 µM in test [3]; 0.1 to 1 µM in test [4]; 0.1 to 1 µM in test [5]; 1 to 10 µM in test [6]. The half-inhibitory concentration (IC50) in test [7] lay in the range of 1 to 10 µM; in test [8], 0.1 to 1 µM.
Regarding `CCn1c(-c2cnccc2COC)c2c3cc(ccc31)-c1cc(O)cc(c1)C[C@H](NC(=O)[C@@H](CCNC(=O)NCCCl)C(C)C)C(=O)N1CCC[C@H](N1)C(=O)OCC(C)(C)C2` [Example 26], the IC50 in test [1] was 1 to 10 µM; in test [2], above 10 µM; in test [3], 1 to 10 µM; in test [4], 1 to 10 µM; in test [5] it was above 10 µM; in test [6], 1 to 10 µM. In addition, the IC50 in test [7] was above 10 µM; in test [8], 1 to 10 µM.
Turning to `CCn1c(-c2cccnc2COC)c2c3cc(ccc31)-c1cc(O)cc(c1)C[C@H](NC(=O)[C@H](C(C)C)N(C)C(=O)CCNC1=NCCO1)C(=O)N1CCC[C@H](N1)C(=O)OCC(C)(C)C2` [Example 27], the IC50 is 1 to 10 µM in test [1]; 1 to 10 µM in test [2]; above 10 µM in test [3]; 1 to 10 µM in test [4]; above 10 µM in test [5]; 1 to 10 µM in test [6]. Besides, the results for the IC50 in test [7] and in test [8] were above 10 µM and 1 to 10 µM, respectively.
`CCn1c(-c2cccnc2COC)c2c3cc(ccc31)-c1cc(O)cc(c1)C[C@H](NC(=O)[C@H](C(C)C)N(C)C(=O)CNC1=NCCO1)C(=O)N1CCC[C@H](N1)C(=O)OCC(C)(C)C2` [Example 28]: the IC50 in test [1] was 1 to 10 µM; in test [2], 1 to 10 µM; in test [3] it was 1 to 10 µM; in test [4], 1 to 10 µM; in test [5], above 10 µM; in test [6] it was 1 to 10 µM. Further, the concentration for half-maximal inhibition (IC50) in test [7] and in test [8] was above 10 µM throughout.
Take `CCn1c(-c2cnccc2COC)c2c3cc(ccc31)-c1cc(O)cc(c1)C[C@H](NC(=O)[C@H](C(C)C)N(C)C(=O)[C@H]1CCN(C(=O)[C@@H]3CO3)C1)C(=O)N1CCC[C@H](N1)C(=O)OCC(C)(C)C2` [Example 31, (3S)—N-((2S)-1-(((6^3S,4S)-1^1-ethyl-25-hydroxy-1^2-(4-(methoxymethyl)pyridin-3-yl)-10,10-dimethyl-5,7-dioxo-6^1,6^2,6^3,6^4,6^5,6^6-hexahydro-1^1H-8-oxa-1 (5,3)-indola-6 (1,3)-pyridazina-2 (1,3)-benzenacycloundecaphane-4-yl)amino)-3-methyl-1-oxobutan-2-yl)-N-methyl-1-((S)-oxirane-2-carbonyl) pyrrolidine-3-carboxamide]: the 50% inhibitory concentration (IC50) in test [1] was 0.01 to 0.1 µM; in test [2], 0.1 to 1 µM; in test [3], 0.1 to 1 µM; in test [4], 0.1 to 1 µM; in test [5], 0.1 to 1 µM; in test [6], 1 to 10 µM. Moreover, the IC50 in test [7] and in test [8] was 1 to 10 µM each time.
As to `CCn1c(-c2cnccc2COC)c2c3cc(ccc31)-c1cc(O)cc(c1)C[C@H](NC(=O)[C@H](C(C)C)N(C)C(=O)CCN(C)C(=O)[C@@H]1CN1)C(=O)N1CCC[C@H](N1)C(=O)OCC(C)(C)C2` [Example 40], the IC50 in test [1], in test [2], in test [3], in test [4], in test [5] and in test [6] was 0.1 to 1 µM each time. Further, the IC50 in test [7] and in test [8] was 0.1 to 1 µM each time.

The values above are taken from US20250195521A1 (Revolution Medicines, Inc., priority 2020, published 2025).
